# Experimental data reported in US12611431B2, “Approach to sustained production and delivery of nitric oxide and S-nitrosothiols” (Albert Einstein College of Medicine, priority 2020, dated 2026).
# How the values were obtained:
# [1] = system: Pseudomonas aeruginosa biofilm, PA1 strain; assay: Biofilm viability and volume by live/dead staining and CLSM, PA1 strain; assay type: cell-based; conditions: 6 hours, MH 14% w/v, nitrite 10 mM
# Method: (§1) A culture of PA, grown overnight in TSB, was diluted to 10^8 cells/mL. The bacterial suspension was then adjusted to 10^5 cells/mL in TSB and inoculated into an 8 well LabTek II Chambered #15 Coverglass System (Thermo Fisher Scientific). The chamber system was incubated at 37° C. for 48 hours. The media was replenished after 24 hours to maintain bacterial viability.
# (§2) Established biofilms were divided into four treatment groups: 1) negative control with untreated bacterial suspension, 2) MH, 3) nitrite (10 mM), and 4) MH administered with nitrite (10 mM). Bacteria were treated with the appropriate treatment solution, as above, for 6 hours under complete darkness at 37° C. followed by washing with PBS. Staining was performed using the BacLight LIVE/DEAD Bacterial Viability kit (Invitrogen, Carlsbad, CA). The LIVE/DEAD kit solution constituting Syto9 and propidium iodide was then applied to each well of the chamber slide system for 1 hour at room temperature in darkness. After incubation, each sample was rinsed with PBS and incubated in 10% buffered formalin for 20 minutes at room temperature in darkness. […]
# (§3) Images of biofilms were taken using a TCS SP5 CLSM (Leica Microsystems, Wetzlar, Germany) configured to a 488-nm argon laser with a 63× objective. […] Volocity software (PerkinElmer, Waltham, MA) was used to quantify biofilm viability and biomass in each Z-stack.
# [2] = system: Pseudomonas aeruginosa planktonic isolates (PA1 strain); assay: Colony forming unit (CFU) assay, titration of nitrite dose with MH; assay type: cell-based; conditions: PA1, 6 hours at 37° C.; MH or nitrite (10 mM) alone
# Method: An overnight-grown culture of the PA1 strain in TSB was diluted to 10^8 cells/mL based on McFarland equivalence turbidity standard No. 0.5 (Thermo Fisher Scientific) and then adjusted to 10^5 cells/mL in TSB. Suspensions were treated with MH, nitrite, and serial dilutions of nitrite from 10 mM to 1 μM combined with MH. Untreated bacteria were used as negative controls. Bacterial suspensions were mixed using a tube rotator to ensure uniform distribution of bacteria and then incubated at 37° C. for 6 hours. Suspensions were then diluted in PBS and plated on TSA. Bacterial viability was determined by counting the number of colonies established on an agar plate after overnight incubation at 37° C.
# [3] = NO release rate measured with a Sievers 280i nitric oxide analyzer; assay type: physicochemical
# Method: NO release rates were measured using a Sievers 280i nitric oxide analyzer (GE Instruments, Boulder, CO). Samples were dispersed in 5 mL tryptic soy broth (TSB) or MH 14% w/v in TSB at room temperature. Release kinetics were analyzed using Sievers NOAnalysis software (GE Instruments) with 12 measurements per minute recorded for 280 total minutes.
# [4] = system: Pseudomonas aeruginosa biofilm, ATCC 15692 strain; assay: Biofilm viability and volume by live/dead staining and CLSM, ATCC 15692 strain; conditions: ATCC 15692 biofilm, 6 hours; MH 14% w/v, nitrite 10 mM, SNO-MP/B-MP 10 mg/mL
# Method: as §1, §2, §3
# [5] = over 280 minutes, nitrite 5 mM, MH 14% w/v, SNO-MP and blank-MP 5 mg/mL, TSB, room temperature
smiles,measurement,setting,value
"O=NO [nitrite, sodium nitrite]",reduction in biofilm volume relative to control,[1]; SNO-MP 10 mg/mL,43.9%
same,reduction in live cells (cell viability) relative to control,[1]; SNO-MP/B-MP 10 mg/mL,did not significantly reduce
same,reduction in CFU versus controls,[2],did not have a significant effect
same,"NO release curve, key points in words (FIG. 1)","[3]; 280 minutes, neutral pH, nitrite 5 mM, MH 14% w/v, SNO-MP 5 mg/mL",no NO production
same,NO detected,"[3]; nitrite 5 mM in tryptic soy broth, room temperature",less than 0.1 ppm
same,"NO release, mean",[3]; [5],0.004±0.001 ppm
same,"NO release, range",[3]; [5],0.003-0.009 ppm
same,reduction in live cells (cell viability) relative to control,[4],did not significantly reduce
